This is an account of results in patent US20230302014A1, “USES OF GLUCOCORTICOID RECEPTOR (GR) ANTAGONIST AND ANDROGEN RECEPTOR (AR) DEGRADER COMBINATIONS” (ORIC Pharmaceuticals, Inc., priority 2020, published 2023).

Molecules are shown by their SMILES.

Assay type in all cases: cell-based, Human
One test concerns AR protein. The test is described as follows: Western blot of AR protein after dose-dependent AR degrader treatment. The following applies: LNCaP and CWR22PC cells, 3 days, increasing doses 3-1000 nM. Background: Immunoblotting shows a protein as a band on a membrane.
Test [1] concerns AR target genes KLK3, KLK4, NKX3.1, FKBP5. The test can be described thus: Target gene assay (RT-qPCR, R1881-induced AR target genes). The settings on record: 100 pM R1881; for AR target gene FKBP5 induced by R1881 / AR target gene KLK3 induced by R1881 / AR target gene KLK4 induced by R1881 / AR target gene NKX3.1 induced by R1881: 24 hours post treatment. The method, then:
(§1) 10,000 LNCaP and CWR22PC cells per well were plated in triplicate in poly-lysine coated 96-well plates (ThermoFisher#152039) in 200 µL of RPMI-1640 media supplemented with 10% charcoal-stripped serum. 24 hours later, cells were treated with 100 pM of R1881 and 8-point dilution for enzalutamide, ARD1 or ARD2 with concentrations ranging from 1 µM to 0.46 nM. After incubation at 37° C. for 24 hours, media was removed, and cells were washed once with PBS. 55 µL per well of iScript RT-qPCR sample preparation reagent (Bio-Rad #1708898) was added and incubated for 2 minutes before lysate was collected for mRNA analysis. RT-qPCR was set up in triplicate using 3 µL of lysate plus 7 µL of pre-mixed SensiFAST™ SYBR No-ROX One-Step Kit reagents (BIOLINE, Cat# BIO-98005) per reaction. The RT-qPCR reactions were run on a Bio-Rad CFX384 Real-Time PCR System and data was plotted with GraphPad Prism 8 software.
as §1, with “15,000” for “10,000”, “24 hours later, cells were treated with 100 pM of R1881 and 8-point dilution for enzalutamide, ARD1 or ARD2 with concentrations ranging from 1 µM to 0.46 nM.” left out, “75” for “55”

The test system of another test is PSA. The test can be described thus: PSA AlphaLISA assay of cell supernatant (PSA secretion). The settings on record: CWR22PC; CSS media; 21 days; 0.1 nM R1881 + 1 µM ARV-110, + 30 nM dexamethasone, + 0.5 µM compound 1.
The test system of test [2] is AR and/or GR target genes KLK4, KLF9, FKBP5, PER1, SGK1. The test can be described thus: Biomarker analysis by RT-qPCR, 48 hours. The following applies: CWR22PC and 22Rv1 cells, 0.1 nM R1881, 1 µM degrader. The method, then:
CWR22PC and 22RV1 cells were seeded at a density of 2 × 10^5 cells/well in 6-well plates in 2 mL of RPMI-1640 media supplemented with 10% charcoal-stripped serum (CSS). Cells were treated with 100 pM R1881, 30 nM dexamethasone, 0.5 µM compound 1, 1 µM of ARD1 or ARD2, or combinations thereof as indicated and maintained at 37° C. 48 hours later, media was removed, and cells were washed once with PBS and then harvested for mRNA analysis.
(§2) Adherent cells or cell pellets harvested for mRNA analysis were first washed once with PBS and then resuspended in 600 µL of RLT lysis buffer (Qiagen Inc.) supplemented with 1% of betamercaptoethanol. RNA was extracted by QIAcube using the RNeasy Mini QIAcube kit (Qiagen#74116) according to manufacturer’s instructions. The extracted RNA samples were then quantified using a Nanodrop 8000 Spectrophotometer. RT-qPCR reactions were set up in triplicate using 3 µL of 3 ng/ µL of RNA in 7 µL of pre-mixed SensiFAST™ SYBR No-ROX One-Step Kit reagents (BIOLINE# BIO-98005). The RT-qPCR reactions were run on a Bio-Rad CFX384 Real-Time PCR System and data was plotted with GraphPad Prism 8 software.
CWR22PC and 22Rv1 cells were seeded at a density of 2 × 10^5 cells/well in 6-well plates in 2 mL of RPMI-1640 media supplemented with 10% charcoal-stripped serum (CSS). […] 48 hours later, media was removed, and cells were washed once with PBS and then harvested for mRNA analysis.

Test [3] has as its system AR and GR target genes in CWR22PC cells. The test can be described thus: End of study (EOS) biomarker analysis by RT-qPCR. The settings on record: CSS media, day 21 EOS, 0.1 nM R1881 + 1 µM ARV-110, + 30 nM dexamethasone, + 0.5 µM compound 1. The method, then:
CWR22PC cells were seeded at a density of 2 × 10^5 cells/well in 6-well plates (Corning# 3516) in 2 mL of RPMI-1640 media supplemented with 10% charcoal-stripped serum (CSS) in duplicate. 24 hours later, cells were treated with 100 pM R1881, 30 nM dexamethasone, 0.5 µM compound 1, 1 µM of ARD1 or ARD2, or combinations thereof as indicated. Fresh media containing the indicated treatment was replaced every 5-7 days. Cell supernatant was collected on Day 12 and 19 and stored at -80° C. for PSA AlphaLISA assay. Cell images were taken on Day 12 and 19 using Leica DMi8 microscope (LEICA MICROSYSTEMS, INC. IL) with a 10X magnification. Cells were then trypsinized and cell numbers in each treatment group were counted three times, average counts were plotted with GraphPad Prism 8. Cell pellets were washed once with 1XPBS and then lysed in 600 µL RLT RNA lysis buffer and stored at -80° C. RNA was extracted for end of study (EOS) biomarker analysis for which the detailed procedures are described in the section RNA Extraction and RT-qPCR analysis.
as §2
CWR22PC cells were seeded at a density of 2 × 10^5 cells/well in 6-well plates (Corning# 3516) in 2 mL of RPMI-1640 media supplemented with 10% charcoal-stripped serum (CSS) in duplicate. […] Cells were then trypsinized and cell numbers in each treatment group were counted three times, average counts were plotted with GraphPad Prism 8. […]

Protocol for AR protein: The cells were then trypsinized (Corning#25-053-CI) and harvested for transcript (RT-qPCR) and protein (western blot) analysis.
Cell pellets were washed with PBS and lysed in RIPA buffer (VWR#AAJ63306-AK) supplemented with proteasome inhibitor cocktails (VWR #AAJ65789-LQ). Resuspended cells were briefly sonicated for ~30 seconds using a probe sonicator and incubated on ice for 40 minutes, followed with centrifugation at 12,000 rpm for 15 minutes at 4° C. to collect the supernatant. Protein concentration was quantitated using Quick Start™ Bradford Protein Assay Kit (Bio-Rad #5000201).
Proteins were transferred to nitrocellulose membranes using iBlot 2 Dry Blotting System (ThermoFisher#IB210021) at 20 V for 10 minutes.

Take `N#Cc1ccc(O[C@H]2CC[C@H](NC(=O)c3ccc(N4CCC(CN5CCN(c6cc7c(cc6F)C(=O)N(C6CCC(=O)NC6=O)C7=O)CC5)CC4)nn3)CC2)cc1Cl` (stereo partly drawn) [ARV-110, N-[trans-4-(3-chloro-4-cyanophenoxy)cyclohexyl]-6-[4-[[4-[2-(2,6-dioxo-3-piperidinyl)-6-fluoro-2,3-dihydro-1,3-dioxo-1H-isoindol-5-yl]-1-piperazinyl]methyl]-1-piperidinyl]-3-pyridazinecarboxamide]: in the test on AR protein, the AR protein levels entry is recorded as “degrades AR protein in a dose-dependent manner”. In test [1] (CWR22PC cells), the “AR target gene FKBP5 induced by R1881” value was “inhibit”, the “AR target gene KLK3 induced by R1881” value is listed as “inhibit”, the “AR target gene KLK4 induced by R1881” value is recorded as “inhibit” and the “AR target gene NKX3.1 induced by R1881” value is “inhibit”. Also, the “expression of AR target genes including KLK3, KLK4, NKX3.1, and FKBP5” value in test [1] (LNCaP and CWR22PC cells, 24 hours, 1 µM to 0.46 nM, potency compared with enzalutamide) is given as “in a dose-dependent manner with greater potency than AR antagonist enzalutamide”. Besides, in test [1] (LNCaP cells), the “AR target gene FKBP5 induced by R1881” value was “inhibit”, the “AR target gene KLK3 induced by R1881” value was “inhibit”, the “AR target gene KLK4 induced by R1881” value is “inhibit” and the “AR target gene NKX3.1 induced by R1881” value was “inhibit”. Besides, the “R1881-induced PSA secretion” value in the test on PSA is recorded as “blunts”. For the same compound, in test [2], the “expression induction by R1881 of AR target FKBP5” value is on record as “completely inhibited” and the “expression induction by R1881 of AR target KLK4” value is listed as “completely inhibited”. Further, the “R1881-induced target gene (biomarker) expression” value in test [3] is given as “blunts”.
